Values of other authors, collected in patent US12030852B2, “Method for producing fatty alcohol esters of hydroxycarboxylic acids” (IOI Oleo GmbH, priority 2019, dated 2024).

Details: even if several grams are taken; short plasma half-life

duration of ketosis: about three to four
SMILES: CC(O)CC(=O)O (stereo not shown) [3-hydroxybutyric acid]
